Laboratory results from ChEMBL document CHEMBL4017512 (J Med Chem, 2017).

Columns and labels:
HCT-116 = assay: Antiproliferative activity against human HCT116 cells after 72 hrs by phosphatase assay; assay type: functional, cell-based; conditions: HCT-116, 72 h
[1] = Cytotoxicity against human HCT116/VM46 cells assessed as reduction in cell viability after 72 hrs by phosphatase assay; assay type: cell-based; conditions: HCT-116/VM46, 72 h
L1210 = assay: Antiproliferative activity against mouse L1210 cells after 72 hrs by phosphatase assay; assay type: functional, cell-based; conditions: L1210, 72 h

| IC50 (HCT-116) | IC50 (L1210) | SMILES | IC50 [1] |
| --- | --- | --- | --- |
| 8.7 nM | 7.5 nM | CC[C@]1(NC(=O)c2cccc(C(C)C)c2)C[C@H]2CN(CCc3c([nH]c4ccccc34)[C@@](C(=O)OC)(c3cc4c(cc3OC)N(C)[C@H]3[C@@](O)(C(=O)OC)[C@H](OC(C)=O)[C@]5(CC)C=CCN6CC[C@]43[C@@H]65)C2)C1 | 65 nM |
| 6.4 nM | 6.2 nM | CC[C@]1(NC(=O)c2ccc(OC)cc2F)C[C@H]2CN(CCc3c([nH]c4ccccc34)[C@@](C(=O)OC)(c3cc4c(cc3OC)N(C)[C@H]3[C@@](O)(C(=O)OC)[C@H](OC(C)=O)[C@]5(CC)C=CCN6CC[C@]43[C@@H]65)C2)C1 | 70 nM |
| 0.6 nM | 0.6 nM | CC[C@]1(NC(=O)c2ccc3ncccc3c2)C[C@H]2CN(CCc3c([nH]c4ccccc34)[C@@](C(=O)OC)(c3cc4c(cc3OC)N(C)[C@H]3[C@@](O)(C(=O)OC)[C@H](OC(C)=O)[C@]5(CC)C=CCN6CC[C@]43[C@@H]65)C2)C1 | 4.9 nM |
| 7.8 nM | 7.4 nM | CC[C@]1(NC(=O)c2ccc3c(c2)C(C)(C)CCC3(C)C)C[C@H]2CN(CCc3c([nH]c4ccccc34)[C@@](C(=O)OC)(c3cc4c(cc3OC)N(C)[C@H]3[C@@](O)(C(=O)OC)[C@H](OC(C)=O)[C@]5(CC)C=CCN6CC[C@]43[C@@H]65)C2)C1 | 50 nM |
| 9 nM | 30 nM | CC[C@]1(NC(=O)c2ccnnc2)C[C@H]2CN(CCc3c([nH]c4ccccc34)[C@@](C(=O)OC)(c3cc4c(cc3OC)N(C)[C@H]3[C@@](O)(C(=O)OC)[C@H](OC(C)=O)[C@]5(CC)C=CCN6CC[C@]43[C@@H]65)C2)C1 | 700 nM |
| 6.3 nM | 5 nM | CC[C@]1(NC(=O)c2cccc(Br)c2)C[C@H]2CN(CCc3c([nH]c4ccccc34)[C@@](C(=O)OC)(c3cc4c(cc3OC)N(C)[C@H]3[C@@](O)(C(=O)OC)[C@H](OC(C)=O)[C@]5(CC)C=CCN6CC[C@]43[C@@H]65)C2)C1 | 60 nM |
| 0.8 nM | 1.5 nM | CC[C@]1(NC(=O)c2ccc(NC(=O)OC)cc2)C[C@H]2CN(CCc3c([nH]c4ccccc34)[C@@](C(=O)OC)(c3cc4c(cc3OC)N(C)[C@H]3[C@@](O)(C(=O)OC)[C@H](OC(C)=O)[C@]5(CC)C=CCN6CC[C@]43[C@@H]65)C2)C1 | 55 nM |
| 2.2 nM | 1.7 nM | CC[C@]1(NC(=O)c2ccc(OC)c(OC(F)(F)F)c2)C[C@H]2CN(CCc3c([nH]c4ccccc34)[C@@](C(=O)OC)(c3cc4c(cc3OC)N(C)[C@H]3[C@@](O)(C(=O)OC)[C@H](OC(C)=O)[C@]5(CC)C=CCN6CC[C@]43[C@@H]65)C2)C1 | 17 nM |
| 4.9 nM | 4.2 nM | CC[C@]1(NC(=O)c2ccc3sccc3c2)C[C@H]2CN(CCc3c([nH]c4ccccc34)[C@@](C(=O)OC)(c3cc4c(cc3OC)N(C)[C@H]3[C@@](O)(C(=O)OC)[C@H](OC(C)=O)[C@]5(CC)C=CCN6CC[C@]43[C@@H]65)C2)C1 | 16 nM |
| 0.6 nM | 0.5 nM | CC[C@]1(NC(=O)/C=C/c2ccsc2)C[C@H]2CN(CCc3c([nH]c4ccccc34)[C@@](C(=O)OC)(c3cc4c(cc3OC)N(C)[C@H]3[C@@](O)(C(=O)OC)[C@H](OC(C)=O)[C@]5(CC)C=CCN6CC[C@]43[C@@H]65)C2)C1 | 20 nM |
| 580 nM | 500 nM | CC[C@]1(NS(=O)(=O)c2c(C)cc(C)cc2C)C[C@H]2CN(CCc3c([nH]c4ccccc34)[C@@](C(=O)OC)(c3cc4c(cc3OC)N(C)[C@H]3[C@@](O)(C(=O)OC)[C@H](OC(C)=O)[C@]5(CC)C=CCN6CC[C@]43[C@@H]65)C2)C1 | 710 nM |
| 0.6 nM | 0.6 nM | CC[C@]1(NC(=O)c2ccc3nccnc3c2)C[C@H]2CN(CCc3c([nH]c4ccccc34)[C@@](C(=O)OC)(c3cc4c(cc3OC)N(C)[C@H]3[C@@](O)(C(=O)OC)[C@H](OC(C)=O)[C@]5(CC)C=CCN6CC[C@]43[C@@H]65)C2)C1 | 7.5 nM |
| 0.6 nM | 0.5 nM | CC[C@]1(NC(=O)c2ccc3ncsc3c2)C[C@H]2CN(CCc3c([nH]c4ccccc34)[C@@](C(=O)OC)(c3cc4c(cc3OC)N(C)[C@H]3[C@@](O)(C(=O)OC)[C@H](OC(C)=O)[C@]5(CC)C=CCN6CC[C@]43[C@@H]65)C2)C1 | 20 nM |
| 60 nM | 45 nM | CC[C@]1(NC(=O)c2ccccc2C(F)(F)F)C[C@H]2CN(CCc3c([nH]c4ccccc34)[C@@](C(=O)OC)(c3cc4c(cc3OC)N(C)[C@H]3[C@@](O)(C(=O)OC)[C@H](OC(C)=O)[C@]5(CC)C=CCN6CC[C@]43[C@@H]65)C2)C1 | 540 nM |
| 3.5 nM | 25 nM | CC[C@]1(NC(=O)c2ccc(CN)cc2)C[C@H]2CN(CCc3c([nH]c4ccccc34)[C@@](C(=O)OC)(c3cc4c(cc3OC)N(C)[C@H]3[C@@](O)(C(=O)OC)[C@H](OC(C)=O)[C@]5(CC)C=CCN6CC[C@]43[C@@H]65)C2)C1 | 470 nM |
| 0.3 nM | 0.3 nM | CC[C@]1(NC(=O)c2ccc3c(c2)OCCN3C)C[C@H]2CN(CCc3c([nH]c4ccccc34)[C@@](C(=O)OC)(c3cc4c(cc3OC)N(C)[C@H]3[C@@](O)(C(=O)OC)[C@H](OC(C)=O)[C@]5(CC)C=CCN6CC[C@]43[C@@H]65)C2)C1 | 4.9 nM |
| 7 nM | 4.5 nM | CC[C@]1(NC(=O)c2ccon2)C[C@H]2CN(CCc3c([nH]c4ccccc34)[C@@](C(=O)OC)(c3cc4c(cc3OC)N(C)[C@H]3[C@@](O)(C(=O)OC)[C@H](OC(C)=O)[C@]5(CC)C=CCN6CC[C@]43[C@@H]65)C2)C1 | 90 nM |

| SMILES | IC50 (HCT-116) | IC50 (L1210) | IC50 [1] |
| --- | --- | --- | --- |
| CC[C@]1(NC(=O)c2ccc3ccccc3n2)C[C@H]2CN(CCc3c([nH]c4ccccc34)[C@@](C(=O)OC)(c3cc4c(cc3OC)N(C)[C@H]3[C@@](O)(C(=O)OC)[C@H](OC(C)=O)[C@]5(CC)C=CCN6CC[C@]43[C@@H]65)C2)C1 | 40 nM | 40 nM | 270 nM |
| CC[C@]1(NC(=O)c2ccc(C(C)C)cc2)C[C@H]2CN(CCc3c([nH]c4ccccc34)[C@@](C(=O)OC)(c3cc4c(cc3OC)N(C)[C@H]3[C@@](O)(C(=O)OC)[C@H](OC(C)=O)[C@]5(CC)C=CCN6CC[C@]43[C@@H]65)C2)C1 | 6.4 nM | 5.4 nM | 13 nM |
| CC[C@]1(NC(=O)c2ccc3ccccc3c2)C[C@H]2CN(CCc3c([nH]c4ccccc34)[C@@](C(=O)OC)(c3cc4c(cc3OC)N(C)[C@H]3[C@@](O)(C(=O)OC)[C@H](OC(C)=O)[C@]5(CC)C=CCN6CC[C@]43[C@@H]65)C2)C1 | 2.3 nM | 1.9 nM | 6.4 nM |
| CC[C@]1(NC(=O)c2ccc(OC)c(OC)c2)C[C@H]2CN(CCc3c([nH]c4ccc(F)cc34)[C@@](C(=O)OC)(c3cc4c(cc3OC)N(C)[C@H]3[C@@](O)(C(=O)OC)[C@H](OC(C)=O)[C@]5(CC)C=CCN6CC[C@]43[C@@H]65)C2)C1 | 0.08 nM | 0.06 nM | 0.9 nM |
| CC[C@]1(NC(=O)c2ccc3c(c2)CCCC3)C[C@H]2CN(CCc3c([nH]c4ccc(F)cc34)[C@@](C(=O)OC)(c3cc4c(cc3OC)N(C)[C@H]3[C@@](O)(C(=O)OC)[C@H](OC(C)=O)[C@]5(CC)C=CCN6CC[C@]43[C@@H]65)C2)C1 | 6.2 nM | 5 nM | 19 nM |
| CC[C@]1(NC(=O)c2ccc(OC(F)(F)F)cc2)C[C@H]2CN(CCc3c([nH]c4ccccc34)[C@@](C(=O)OC)(c3cc4c(cc3OC)N(C)[C@H]3[C@@](O)(C(=O)OC)[C@H](OC(C)=O)[C@]5(CC)C=CCN6CC[C@]43[C@@H]65)C2)C1 | 4.4 nM | 5.9 nM | 8.4 nM |
| CC[C@]1(NC(=O)c2ccc(N)cc2)C[C@H]2CN(CCc3c([nH]c4ccccc34)[C@@](C(=O)OC)(c3cc4c(cc3OC)N(C)[C@H]3[C@@](O)(C(=O)OC)[C@H](OC(C)=O)[C@]5(CC)C=CCN6CC[C@]43[C@@H]65)C2)C1 | 0.4 nM | 0.4 nM | 4.8 nM |
| CC[C@]1(NC(=O)c2ccoc2)C[C@H]2CN(CCc3c([nH]c4ccccc34)[C@@](C(=O)OC)(c3cc4c(cc3OC)N(C)[C@H]3[C@@](O)(C(=O)OC)[C@H](OC(C)=O)[C@]5(CC)C=CCN6CC[C@]43[C@@H]65)C2)C1 | 0.6 nM | 0.7 nM | 6.3 nM |
| CC[C@]1(NC(=O)c2ccc(OC)c(C)c2)C[C@H]2CN(CCc3c([nH]c4ccccc34)[C@@](C(=O)OC)(c3cc4c(cc3OC)N(C)[C@H]3[C@@](O)(C(=O)OC)[C@H](OC(C)=O)[C@]5(CC)C=CCN6CC[C@]43[C@@H]65)C2)C1 | 0.7 nM | 0.6 nM | 5.2 nM |
| CC[C@]1(NC(=O)C2Cc3ccccc3C2)C[C@H]2CN(CCc3c([nH]c4ccccc34)[C@@](C(=O)OC)(c3cc4c(cc3OC)N(C)[C@H]3[C@@](O)(C(=O)OC)[C@H](OC(C)=O)[C@]5(CC)C=CCN6CC[C@]43[C@@H]65)C2)C1 | 15 nM | 30 nM | 80 nM |
| CC[C@]1(NC(=O)C2CC2)C[C@H]2CN(CCc3c([nH]c4ccccc34)[C@@](C(=O)OC)(c3cc4c(cc3OC)N(C)[C@H]3[C@@](O)(C(=O)OC)[C@H](OC(C)=O)[C@]5(CC)C=CCN6CC[C@]43[C@@H]65)C2)C1 | 6.1 nM | 5.5 nM | 95 nM |
| CC[C@]1(NC(=O)c2csc3ccccc23)C[C@H]2CN(CCc3c([nH]c4ccccc34)[C@@](C(=O)OC)(c3cc4c(cc3OC)N(C)[C@H]3[C@@](O)(C(=O)OC)[C@H](OC(C)=O)[C@]5(CC)C=CCN6CC[C@]43[C@@H]65)C2)C1 | 5.7 nM | 5.2 nM | 20 nM |
